Test results taken from US7935819B2, “Cyclic urea derivatives, preparation thereof and pharmaceutical use thereof as kinase inhibitors” (Aventis Pharma S.A., priority 2006, dated 2011).
Where two headings read alike, the source gives them in different places.

Key:
[1] = target: T1, IGF-1R (human cytoplasmic domain fused with GST) (Homo sapiens, UniProt P08069); experiment: Kinase IGF-1R test (Test A): inhibition of autophosphorylation of the enzyme, HTRF; assay type: biochemical; details: 120 μM ATP
T1 construct: The human cytoplasmic domain of IGF-1R was cloned by fusion with glutathione S-transferase (GST); made in house; host or cells: SF21 insect cells (baculovirus, pFastBac-GST)
T1 sequence (P08069 960-1367 limits assumed): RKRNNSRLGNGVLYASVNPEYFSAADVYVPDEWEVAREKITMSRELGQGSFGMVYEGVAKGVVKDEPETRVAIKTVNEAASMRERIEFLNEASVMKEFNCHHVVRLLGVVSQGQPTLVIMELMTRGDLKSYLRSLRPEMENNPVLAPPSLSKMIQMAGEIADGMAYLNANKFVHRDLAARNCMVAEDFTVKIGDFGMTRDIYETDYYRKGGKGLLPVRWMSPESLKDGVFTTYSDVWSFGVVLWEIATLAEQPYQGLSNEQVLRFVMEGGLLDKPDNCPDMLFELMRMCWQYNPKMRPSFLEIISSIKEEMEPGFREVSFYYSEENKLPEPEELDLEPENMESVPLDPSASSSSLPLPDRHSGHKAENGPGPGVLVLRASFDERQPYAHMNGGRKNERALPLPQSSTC
Protocol: A) Experimental Protocol for the Kinase IGF-1R Test:
The inhibitory activity of the compounds on IGF1R is determined by measuring the inhibition of autophosphorylation of the enzyme using a time-resolved fluorescence test (HTRF). The human cytoplasmic domain of IGF-1R was cloned by fusion with glutathione S-transferase (GST) in the baculovirus expression vector pFastBac-GST. The protein is expressed in the SF21 cells and purified to about 80% homogeneity. For the enzymatic test, the test compound at 10 mM dissolved in DMSO is diluted in 1/3 steps in a 50 mM Hepes, pH 7.5, 5 mM MnCl2, 50 mM NaCl, 3% Glycerol, 0.025% Tween 20 buffer. To measure the inhibition, the successive dilutions of the compound are preincubated for 30 minutes and 90 minutes in the presence of 5 nM of enzyme, the final DMSO concentration not exceeding 1%. The enzymatic reaction is initiated to have a final ATP concentration of 120 μM, and is stopped after 5 minutes by addition of 100 mM Hepes, pH 7.0 buffer containing 0.4 M of potassium fluoride, 133 mM EDTA, 0.1% BSA, the XL665-labelled antibody anti-GST and the anti-phosphotyrosine antibody conjugated to europium cryptate Eu—K (Cis-Bio Int.). The characteristics of the two fluorophores, XL-665 and Eu—K, are available in G. Mathis et al., Anticancer Research, 1997, 17, pages 3011-3014. The energy transfer between the excited europium cryptate to the acceptor XL665 is proportional to the degree of autophosphorylation of IGF-1R. The specific long-lasting signal of XL-665 is measured in a GENios Pro TECAN plate counter. The inhibition of autophosphorylation of IGF-1R at time 30 minutes and 90 minutes with the test compounds of the invention is calculated relative to a 1% in DMSO control, whose activity is measured in the absence of compound. The curve representing the percentage of inhibition as a function of the log of the concentration is established to determine the concentration corresponding to 50% inhibition (IC50).

[2] = target: MEF-IGF1R cells (stable clone transfected with hIGF-1R) (Homo sapiens, UniProt P08069); experiment: Proliferation/viability of MEF-IGF1R (Test C), [14C]thymidine incorporation; assay type: cell-based; details: rhIGF1 100 ng/mL, 72 hours, read-out: Test C IC50
Chain of MEF-IGF1R cells (stable clone transfected with hIGF-1R) (P08069 whole entry, change not shown): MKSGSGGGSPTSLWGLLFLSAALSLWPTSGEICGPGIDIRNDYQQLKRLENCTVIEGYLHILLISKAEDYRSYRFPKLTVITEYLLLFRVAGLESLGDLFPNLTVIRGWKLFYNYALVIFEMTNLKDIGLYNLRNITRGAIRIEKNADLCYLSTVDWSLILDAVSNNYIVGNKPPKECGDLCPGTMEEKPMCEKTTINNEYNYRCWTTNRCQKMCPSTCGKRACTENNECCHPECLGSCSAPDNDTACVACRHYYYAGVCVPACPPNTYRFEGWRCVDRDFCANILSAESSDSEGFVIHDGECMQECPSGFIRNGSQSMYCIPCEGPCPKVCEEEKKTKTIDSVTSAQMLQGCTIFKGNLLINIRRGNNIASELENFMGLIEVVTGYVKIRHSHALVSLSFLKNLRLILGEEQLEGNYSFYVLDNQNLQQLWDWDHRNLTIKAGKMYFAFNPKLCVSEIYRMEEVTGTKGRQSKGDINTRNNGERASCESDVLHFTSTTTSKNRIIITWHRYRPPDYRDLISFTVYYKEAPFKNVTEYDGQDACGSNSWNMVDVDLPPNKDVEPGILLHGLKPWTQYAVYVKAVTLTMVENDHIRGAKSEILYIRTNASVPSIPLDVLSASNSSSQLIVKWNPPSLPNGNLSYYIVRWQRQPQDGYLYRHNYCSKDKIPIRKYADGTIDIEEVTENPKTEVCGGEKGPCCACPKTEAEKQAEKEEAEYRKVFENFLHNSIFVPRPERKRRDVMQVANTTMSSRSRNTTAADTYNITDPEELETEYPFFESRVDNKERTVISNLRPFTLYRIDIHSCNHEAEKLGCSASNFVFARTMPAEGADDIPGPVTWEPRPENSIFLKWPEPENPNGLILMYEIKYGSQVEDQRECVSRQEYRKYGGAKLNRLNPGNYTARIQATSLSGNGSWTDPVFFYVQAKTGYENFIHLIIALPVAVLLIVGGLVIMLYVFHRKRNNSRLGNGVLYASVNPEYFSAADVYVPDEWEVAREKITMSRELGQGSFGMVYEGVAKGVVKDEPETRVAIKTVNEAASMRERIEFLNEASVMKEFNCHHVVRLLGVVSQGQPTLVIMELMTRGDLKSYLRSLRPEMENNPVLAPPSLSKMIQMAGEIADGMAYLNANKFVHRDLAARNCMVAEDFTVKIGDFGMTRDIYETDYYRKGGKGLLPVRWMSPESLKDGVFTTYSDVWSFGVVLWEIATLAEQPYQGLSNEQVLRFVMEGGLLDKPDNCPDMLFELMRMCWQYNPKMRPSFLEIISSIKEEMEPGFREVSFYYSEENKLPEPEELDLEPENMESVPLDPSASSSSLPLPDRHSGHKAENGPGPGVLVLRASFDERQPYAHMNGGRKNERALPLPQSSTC
Protocol: C) Measurement of the Proliferation/Viability of MEF-IGF1R
Cell culture: the MEF-IGF1R cells (stable clone of cells transfected with the receptor hIGF-1R) are cultured at 37° C. under 5% CO2 in EMEM medium containing 10% FCS.
Test procedure: the cells are seeded at 5000 cells per well in 96-well Cytostar plates (Amersham) with 0.2 mL of EMEM culture medium at 37° C. for 18 hours. The cells are then washed twice with EMEM medium and left to culture without serum for 24 hours. The compounds are then added at various concentrations in the presence of rhIGF1 (100 ng/mL) and 0.1 μCi of Thymidine [^14C] (specific activity ˜50 mCi/mmol) to give 0.2 mL of volume per well. After incubation for 72 hours in the presence of the compound, at 37° C. under 5% CO2, the incorporation of Thymidine [^14C] is measured by counting the radioactivity on a Microbeta trilux counter (Perkin-Elmer). The IC50 is determined from 10 increasing concentrations of the compound.
(§1) (i) The tests are performed in duplicate and the mean of the two tests is calculated.
(§2) (ii) The value of the signal of the maximum response is calculated from the positive control: cells stimulated with IGF1 without compound.
(§3) (iii) Value of the signal of the minimum response is calculated from the negative control: cells not stimulated with IGF1 without compound.
(§4) (iv) By using these values as maximum (100%) and minimum (0%), respectively, the data were normalized so as to give a percentage of the maximum response.
(§5) (v) A curve of dose response is plotted and the IC50 (the concentration of which the compound induces a 50% decrease in the signal) of the compound is calculated by non-linear regression analysis.

[3] = target: T2, IGF1R in MCF-7 cells (Homo sapiens, UniProt P08069); experiment: Autophosphorylation of IGF-1R in MCF7 cells after stimulation with IGF-1 (Test B), ELISA; assay type: cell-based; details: compound added one hour before IGF1 stimulation (10 minutes)
T2 construct: endogenous in cells; host or cells: MCF-7 cells
T2 sequence (P08069 31-1367): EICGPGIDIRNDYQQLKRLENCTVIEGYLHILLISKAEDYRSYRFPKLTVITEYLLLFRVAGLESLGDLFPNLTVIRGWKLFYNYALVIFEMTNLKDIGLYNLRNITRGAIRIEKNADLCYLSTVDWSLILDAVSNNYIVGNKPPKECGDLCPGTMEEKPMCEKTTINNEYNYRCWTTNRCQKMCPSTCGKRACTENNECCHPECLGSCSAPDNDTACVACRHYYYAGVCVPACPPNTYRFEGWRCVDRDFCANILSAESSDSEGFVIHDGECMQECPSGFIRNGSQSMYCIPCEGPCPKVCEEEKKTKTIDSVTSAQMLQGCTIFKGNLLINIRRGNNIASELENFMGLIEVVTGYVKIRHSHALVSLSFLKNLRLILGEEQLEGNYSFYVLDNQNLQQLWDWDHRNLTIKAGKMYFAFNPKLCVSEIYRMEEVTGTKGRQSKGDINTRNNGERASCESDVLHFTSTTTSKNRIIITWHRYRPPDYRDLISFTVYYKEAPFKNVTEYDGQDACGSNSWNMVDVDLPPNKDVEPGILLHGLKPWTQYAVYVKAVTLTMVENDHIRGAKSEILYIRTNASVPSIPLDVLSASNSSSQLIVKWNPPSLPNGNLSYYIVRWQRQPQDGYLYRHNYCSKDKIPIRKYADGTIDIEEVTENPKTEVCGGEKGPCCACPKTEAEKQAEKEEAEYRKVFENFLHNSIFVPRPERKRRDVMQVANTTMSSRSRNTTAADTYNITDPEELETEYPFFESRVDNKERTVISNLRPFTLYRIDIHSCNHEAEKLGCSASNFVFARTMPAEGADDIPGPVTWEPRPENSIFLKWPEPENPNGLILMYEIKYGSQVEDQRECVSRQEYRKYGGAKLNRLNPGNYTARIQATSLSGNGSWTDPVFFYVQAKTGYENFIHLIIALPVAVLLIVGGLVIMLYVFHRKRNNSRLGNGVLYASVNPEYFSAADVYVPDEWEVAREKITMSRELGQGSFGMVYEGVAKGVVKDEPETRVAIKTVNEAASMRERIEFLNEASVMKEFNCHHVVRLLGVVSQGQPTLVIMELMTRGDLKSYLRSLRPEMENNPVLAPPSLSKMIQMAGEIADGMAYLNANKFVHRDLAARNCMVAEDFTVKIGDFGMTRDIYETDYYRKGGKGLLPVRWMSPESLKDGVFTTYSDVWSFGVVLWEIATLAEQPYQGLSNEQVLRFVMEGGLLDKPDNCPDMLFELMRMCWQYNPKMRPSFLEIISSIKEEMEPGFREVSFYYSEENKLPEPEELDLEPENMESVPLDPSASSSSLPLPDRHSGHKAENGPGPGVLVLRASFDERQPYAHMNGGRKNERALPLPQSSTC
Protocol: B) Measurement of the Autophosphorylation of IGF-1r in MCF7 Cells after Stimulation with IGF-1
Cell Culturing and Execution of the Test:
The autophosphorylation of IGF1R in the IGF1-induced cells is evaluated by means of an ELISA technique (Enzyme Linked ImmunoSorbent Assay). The MCF-7 are seeded at 60 000 cells per well in 6-well plates and incubated at 37° C., 5% CO2 in medium containing 10% serum. After one night in 10% serum, the cells are deprived of serum for 24 hours. The compounds are added to the medium one hour before stimulation with IGF1. After 10 minutes of stimulation with IGF1, the cells are lysed with a buffer (Hepes 50 mM pH 7.6, Triton X100 1%, orthovanadate 2 mM, protease inhibitor cocktail). The cell lysates are incubated on a 96-well plate precoated with an anti-IGF1R antibody, followed by incubation with an anti-phosphotyrosine antibody coupled to the enzyme peroxidase. The level of peroxidase activity (measured by OD with a luminescent substrate) reflects the phosphorylation status of the receptor.
as §1, §2, §3, §4, §5

[4] = preincubation with enzyme 30 minutes, read-out: Test A 30′ IC50
[5] = preincubation with enzyme 90 minutes, read-out: Test A 90′ IC50

Row | SMILES | IC50 [1, 4] | IC50 [1, 5] | IC50 [3] | GI50 [2]
1 | CC(C)(C)c1ccc(N2C(=O)N(Cc3ccnc(NC(=O)NC4CCC4)c3)C(C)(C)C2=O)cc1 [Example 14, 1-(4-{[3-(4-tert-butylphenyl)-5,5-dimethyl-2,4-dioxoimidazolidin-1-yl]methyl}pyridin-2-yl)-3-cyclobutylurea] | 10 to 100 nM | 10 to 100 nM | 10 to 100 nM | 10 to 100 nM
2 | CCCCNC(=O)Nc1cc(CN2C(=O)N(c3ccc(C(C)(C)C)cc3)C(=O)C2(C)C)ccn1 [Example 28, 1-butyl-3-(4-{[3-(4-tert-butylphenyl)-5,5-dimethyl-2,4-dioxoimidazolidin-1-yl]methyl}pyridin-2-yl)urea] | 10 to 100 nM | 10 to 100 nM | 10 to 100 nM | > 100 nM
3 | CC(C)(C)c1ccc(N2C(=O)N(Cc3ccnc(NC(=O)N4CCC4)c3)C(C)(C)C2=O)cc1 [Example 18, N-(4-{[3-(4-tert-butylphenyl)-5,5-dimethyl-2,4-dioxoimidazolidin-1-yl]methyl}pyridin-2-yl)azetidine-1-carboxamide] | 10 to 100 nM | 10 to 100 nM | < 10 nM | 10 to 100 nM

Continued, in another order:

Row | IC50 [1, 4] | IC50 [1, 5] | IC50 [3] | SMILES | GI50 [2]
4 | 10 to 100 nM | < 10 nM | < 10 nM | COC(=O)Nc1cc(CN2C(=O)N(c3ccc(C(C)(C)C)cc3)C(=O)C2(C)C)ccn1 [Example 31Q, methyl (4-{[3-(4-tert-butylphenyl)-5,5-dimethyl-2,4-dioxoimidazolidin-1-yl]methyl}pyridin-2-yl)carbamate] | 10 to 100 nM
5 | > 100 nM | 10 to 100 nM | 10 to 100 nM | CC(C)(C)c1ccc(N2C(=O)N(Cc3ccnc(Nc4ccc(Cl)nc4)c3)C(C)(C)C2=O)cc1 [Example 31L, 3-(4-tert-butylphenyl)-1-({2-[(6-chloropyridin-3-yl)amino]pyridin-4-yl}methyl)-5,5-dimethylimidazolidine-2,4-dione] | 10 to 100 nM
6 | 10 to 100 nM | 10 to 100 nM | < 10 nM | CC(C)(C)c1ccc(N2C(=O)N(Cc3ccnc(Nc4cccnc4Cl)c3)C(C)(C)C2=O)cc1 [Example 31K, 3-(4-tert-butylphenyl)-1-({2-[(2-chloropyridin-3-yl)amino]pyridin-4-yl}methyl)-5,5-dimethylimidazolidine-2,4-dione] | 10 to 100 nM
7 | > 100 nM | 10 to 100 nM | 10 to 100 nM | CN(C)CC(=O)N1CC(C)(C)c2ccc(N3C(=O)N(Cc4ccnc(Nc5cccnc5)c4)C(C)(C)C3=O)cc21 [Example 31B, 3-[1-(N,N-dimethylglycyl)-3,3-dimethyl-2,3-dihydro-1H-indol-6-yl]-5,5-dimethyl-1-{[2-(pyridin-3-ylamino)pyridin-4-yl]methyl}imidazolidine-2,4-dione] | < 10 nM
